Measured values from patent US20250368647A1, “NITROGEN CONTAINING CONDENSED 2,3-DIHYDROQUINAZOLINONE COMPOUNDS AS NAV1.8 INHIBITORS” (GLAXOSMITHKLINE INTELLECTUAL PROPERTY DEVELOPMENT LIMITED, priority 2022, published 2025).
Structures can show the parent of a compound that is named as a salt.

Molecular target: human Nav1.8 (Homo sapiens (Human), UniProt Q9Y5Y9)
Test: QPatch 48 HTX voltage-clamp electrophysiology, half inactivation state (V1/2) protocol, HEK293-Nav1.8 cells
Type: cell-based
Conditions: HEK293 cells expressing human Nav1.8, human Navβ1 and human TREK1, P2 current; for IC50: read-out: Nav1.8, pIC50 (converted)
Protocol: Human embryonic kidney 293 cells (HEK293) expressing human Nav1.8, human Navβ1 and human TREK1 (HEK293-Nav1.8) were grown in T150 cell culture flasks at 37° C., 5% CO2 incubator. HEK293-Nav1.8 were passaged every 2-3 days when confluency reached 80-90% in T150 cell culture flasks.
Pharmacological assessment of compounds of the invention was performed using the QPatch 48 HTX electrophysiological platform. HEK293-Nav1.8 cells were prepared on the day of use by removing culture media, washing in DPBS, adding Accutase (2 mL to cover the surface, aspirate 1 mL then 1-2 minutes at 37° C.) followed by addition of CHO-SFM II to stop the enzyme digestion and in order to obtain a suspension of 3×10^6 cell/mL.
Compounds of the invention were prepared in an extracellular solution of the following composition: NaCl (145 mM), KCl (4 mM), CaCl2) (2 mM), MgCl (2 mM), HEPES (1 mM), Glucose (10 mM), pH 7.4 with NaOH Osmolality 300 mOsM/L. An intracellular solution of the following composition was used: CsF (115 mM), CsCl (20 mM), NaCl (5 mM), EGTA (10 mM), HEPES (10 mM), Sucrose (20 mM), pH 7.2 with CsOH Osmolality 310 mOsm/L.
Utilizing the voltage-clamp mode in the QPatch 48 HTX system a half inactivation state voltage protocol (V1/2) was used to determine pharmacological activity of compounds of the invention at Nav1.8 ion channels. A V1/2 protocol was utilized with the following voltage steps: a holding voltage of −100 mV was established followed by a 20 ms voltage step to 0 mV (P1), followed by an inactivating voltage step at −46 mV for 8 seconds, followed by a step to −100 mV for 20 ms, before a 20 ms step to 0 mV (P2), then returned to the holding voltage of −100 mV. This voltage protocol was repeated at a frequency of every 15 seconds, the current magnitude was quantified at the P2 step throughout the recording. Inhibition of the measured current amplitude with compounds of the invention was analyzed by fitting a 4-6 points dose-response curve allowing determination of the fifty percent inhibition concentration (IC50). P2 currents were normalized according to measurements made at baseline (Baseline, vehicle only), after compound (Input, at each test concentration), and after positive reference compound (FullResponse, to achieve complete block), fit to the following equation: […]
To assess current run-down over the course of the experiment vehicle-only wells were utilized and the normalized current with vehicle-only (n.IVEH) was determined. To correct the compound response for run-down, the currents were corrected according to the following formula: […]
Compound inhibition was fitted to the following Hill Equation to estimate the half maximal inhibition concentration (IC50)
[formula] • where Y is the normalized run-down corrected inhibition relative to the vehicle control (equivalent to n.IRD_Correct), C the test compound concentration, IC50 the concentration of test compound to inhibit the sodium current by 50%, and h the Hill coefficient.

human Nav1.8, sequence (Q9Y5Y9 whole entry): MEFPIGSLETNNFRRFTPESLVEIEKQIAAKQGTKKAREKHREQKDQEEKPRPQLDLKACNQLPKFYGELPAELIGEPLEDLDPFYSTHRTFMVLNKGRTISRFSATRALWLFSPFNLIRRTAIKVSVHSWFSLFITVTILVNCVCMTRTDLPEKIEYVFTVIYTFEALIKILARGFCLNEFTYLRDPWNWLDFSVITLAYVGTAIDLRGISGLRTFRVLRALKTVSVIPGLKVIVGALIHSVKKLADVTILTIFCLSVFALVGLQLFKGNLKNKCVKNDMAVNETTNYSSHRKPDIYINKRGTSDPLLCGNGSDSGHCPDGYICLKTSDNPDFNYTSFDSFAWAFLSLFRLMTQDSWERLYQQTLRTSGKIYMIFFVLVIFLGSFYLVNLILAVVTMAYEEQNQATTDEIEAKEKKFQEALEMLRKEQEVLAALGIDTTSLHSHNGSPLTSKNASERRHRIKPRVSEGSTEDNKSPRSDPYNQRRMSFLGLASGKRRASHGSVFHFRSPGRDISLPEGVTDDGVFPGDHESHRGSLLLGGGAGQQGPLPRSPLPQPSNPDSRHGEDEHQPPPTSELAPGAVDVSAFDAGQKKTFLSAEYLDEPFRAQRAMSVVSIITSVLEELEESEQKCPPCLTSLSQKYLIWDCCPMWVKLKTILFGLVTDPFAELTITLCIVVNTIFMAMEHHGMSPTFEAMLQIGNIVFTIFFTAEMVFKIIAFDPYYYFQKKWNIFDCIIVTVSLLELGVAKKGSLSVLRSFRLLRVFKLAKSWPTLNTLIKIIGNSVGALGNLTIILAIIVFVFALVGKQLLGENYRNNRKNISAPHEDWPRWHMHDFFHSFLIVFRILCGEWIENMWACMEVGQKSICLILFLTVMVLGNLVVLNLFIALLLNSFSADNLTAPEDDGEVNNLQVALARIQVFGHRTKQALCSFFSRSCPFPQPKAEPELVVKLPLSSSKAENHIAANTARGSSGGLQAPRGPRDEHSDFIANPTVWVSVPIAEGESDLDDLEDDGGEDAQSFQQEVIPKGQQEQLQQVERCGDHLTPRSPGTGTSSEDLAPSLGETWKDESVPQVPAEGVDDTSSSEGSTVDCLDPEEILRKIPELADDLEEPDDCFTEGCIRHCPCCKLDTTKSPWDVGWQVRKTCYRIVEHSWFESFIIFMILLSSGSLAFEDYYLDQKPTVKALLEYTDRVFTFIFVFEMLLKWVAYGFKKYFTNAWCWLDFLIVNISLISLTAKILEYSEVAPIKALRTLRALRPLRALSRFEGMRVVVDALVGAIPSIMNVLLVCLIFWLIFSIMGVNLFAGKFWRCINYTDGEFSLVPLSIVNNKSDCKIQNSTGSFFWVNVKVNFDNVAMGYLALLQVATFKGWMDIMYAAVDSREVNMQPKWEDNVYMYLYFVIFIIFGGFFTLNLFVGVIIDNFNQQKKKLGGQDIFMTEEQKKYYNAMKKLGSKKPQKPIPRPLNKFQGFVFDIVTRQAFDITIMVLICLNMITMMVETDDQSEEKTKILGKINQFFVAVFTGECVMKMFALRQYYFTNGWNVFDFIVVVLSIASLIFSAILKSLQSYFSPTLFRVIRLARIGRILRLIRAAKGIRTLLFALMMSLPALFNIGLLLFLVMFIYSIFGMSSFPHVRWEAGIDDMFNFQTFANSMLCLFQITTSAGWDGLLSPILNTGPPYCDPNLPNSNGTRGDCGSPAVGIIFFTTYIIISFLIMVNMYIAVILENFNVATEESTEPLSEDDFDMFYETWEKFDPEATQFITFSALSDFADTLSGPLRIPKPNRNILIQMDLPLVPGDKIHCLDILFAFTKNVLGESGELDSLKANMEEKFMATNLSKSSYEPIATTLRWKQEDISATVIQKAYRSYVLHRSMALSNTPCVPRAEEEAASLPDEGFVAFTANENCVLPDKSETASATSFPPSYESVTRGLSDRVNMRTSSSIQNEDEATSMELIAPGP
human Nav1.8, sequence (Q07699 19-218 partner): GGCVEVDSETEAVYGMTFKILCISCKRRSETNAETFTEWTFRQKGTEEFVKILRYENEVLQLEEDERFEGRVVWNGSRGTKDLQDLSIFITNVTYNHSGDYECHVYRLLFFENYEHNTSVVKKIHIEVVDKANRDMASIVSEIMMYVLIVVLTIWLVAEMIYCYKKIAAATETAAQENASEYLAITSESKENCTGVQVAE

SMILES	Nav1.8, pIC50	IC50 [µM]
CC1NCCc2[nH]c(=O)ccc2N2CN(c3cc(Cl)c(F)cc3C2=O)c2ccc(F)cc21 (racemic) [Example 120, 3-Chloro-2,8-difluoro-10-methyl-10,11,12,13-tetrahydro-19H-5,18-methanodibenzo[c,f]pyrido-[3,2-j][1,5,9]triazacyclotridecine-15,19(14H)-dione hydrochloride]	7	–
CC1Cc2[nH]c(=O)ccc2N2CN(c3ccc(F)cc3CN1)c1cc(C(F)(F)F)c(F)cc1C2=O (racemic) [Example 123, 2,8-Difluoro-12-methyl-3-(trifluoromethyl)-10,11,12,13-tetrahydro-19H-5,18-methanodibenzo-[c,f]pyrido[3,2-j][1,5,9]triazacyclotridecine-15,19(14H)-dione hydrochloride]	6.1	–
CC1Cc2[nH]c(=O)ccc2N2CN(c3ccc(F)cc3CN1)c1cc(C(F)(F)F)c(F)cc1C2=O (single isomer, unassigned; isomer 1) [Example 124, 2,8-difluoro-12-methyl-3-(trifluoromethyl)-10,11,12,13-tetrahydro-19H-5,18-methanodibenzo[c,f]pyrido[3,2-j][1,5,9]triazacyclotridecine-15,19(14H)-dione, Isomer 1]	–	1.58
CC1Cc2[nH]c(=O)ccc2N2CN(c3ccc(F)cc3CN1)c1cc(C(F)(F)F)c(F)cc1C2=O (single isomer, unassigned; isomer 2) [Example 125, 2,8-difluoro-12-methyl-3-(trifluoromethyl)-10,11,12,13-tetrahydro-19H-5,18-methanodibenzo[c,f]pyrido[3,2-j][1,5,9]triazacyclotridecine-15,19(14H)-dione, Isomer 2]	–	0.631
O=C1c2cc(C(F)(F)F)ccc2N2CN1c1ccc(=O)[nH]c1/C=C/Cc1cc(F)ccc12 [Example 1, (E)-8-Fluoro-2-(trifluoromethyl)-13-hydro-10H, 18H,-5,17-methanodibenzo[b,k]pyrido[3,2-f][1,5]diazacyclododecine-14,18-dione]	5.1	–
O=C1c2cc(C(F)(F)F)ccc2N2CN1c1ccc(=O)[nH]c1C/C=C\Cc1cc(F)ccc12 [Example 3, 8-Fluoro-2-(trifluoromethyl)-10,13-dihydro-19H-5,18-methanodibenzo[b,l]pyrido[3,2-f][1,5]diazacyclotridecine-15,19(14H)-dione]	6.4	–
O=C1c2cc(C(F)(F)F)ccc2N2CN1c1ccc(=O)[nH]c1CCCCc1cc(F)ccc12 [Example 4, 8-Fluoro-2-(trifluoromethyl)-10,11,12,13-tetrahydro-19H-5,18-methanodibenzo[b,l]pyridino[3,2-f][1,5]diazacyclotridecine-15,19(14H)-dione]	6.8	–
O=C1c2cc(C(F)(F)F)ccc2N2CN1c1ccc(=O)[nH]c1CCCCCCc1cc(F)ccc12 [Example 10, 3^4-Fluoro-2^6-(trifluoromethyl)-1^1,1^2,2^1,2^2,2^3,2^4-hexahydro-2(3,1)-quinazolina-1(5,6)-pyridina-3(1,2)-benzenacyclononaphane-1^2,2^4-dione]	6.5	–
O=C1c2cc(C(F)(F)F)ccc2N2CN1c1ccc(=O)[nH]c1NCCOc1cc(F)ccc12 [Example 15, 8-Fluoro-2-(trifluoromethyl)-12,13-dihydro-11H,19H-5,18-methanodibenzo[i,j]pyrido[2,3-e][1]oxa[4,7,11]triazacyclotridecine-15,19(14H)-dione]	5.7	–

The remaining lines, values ahead:

Nav1.8, pIC50	IC50 [µM]	SMILES
6.8	–	CC1NCCc2[nH]c(=O)ccc2N2CN(c3ccc(C(F)(F)F)cc3C2=O)c2ccc(F)cc21 (racemic) [Example 114, 8-Fluoro-10-methyl-2-(trifluoromethyl)-10,11,12,13-tetrahydro-19H-5,18-methanodibenzo[c,f]-pyrido[3,2-j][1,5,9]triazacyclotridecine-15,19(14H)-dione hydrochloride]
7.3	–	CC1NCCc2[nH]c(=O)ccc2N2CN(c3cc(C(F)(F)F)c(F)cc3C2=O)c2ccc(F)cc21 (racemic) [Example 117, 2,8-Difluoro-10-methyl-3-(trifluoromethyl)-10,11,12,13-tetrahydro-19H-5,18-methanodibenzo-[c,f]pyrido[3,2-j][1,5,9]triazacyclotridecine-15,19(14H)-dione hydrochloride]
6.0	–	O=C1c2cc(C(F)(F)F)ccc2N2CN1c1ccc(=O)[nH]c1CCCc1cc(F)ccc12 [Example 2, 14-Fluoro-8-(trifluoromethyl)-17,18-dihydro-1H,6H-5,11-methanodibenzo[b,k]pyridino[3,2-f][1,5]diazacyclododecine-2,6(16H)-dione]
6.3	–	O=C1c2ccc(C(F)(F)F)cc2N2CN1c1ccc(=O)[nH]c1C/C=C\Cc1cc(F)ccc12 [Example 5, 8-Fluoro-3-(trifluoromethyl)-10,13-dihydro-19H-5,18-methanodibenzo[b,l]pyrido[3,2f][1,5]diazacyclo tridecin-15,19(14H)-dione]
7.1	–	O=C1c2ccc(C(F)(F)F)cc2N2CN1c1ccc(=O)[nH]c1CCCCc1cc(F)ccc12 [Example 6, 8-fluoro-3-(trifluoromethyl)-10,11,12,13-tetrahydro-19H-5,18-methanodibenzo[b,l]pyridino[3,2-f][1,5]diazacyclotridecine-15,19(14H)-dione]
8.1	–	O=C1c2cc(C(F)(F)F)ccc2N2CN1c1ccc(=O)[nH]c1CCCCCc1cc(F)ccc12 [Example 7, 3^4-Fluoro-2^6-(trifluoromethyl)-1^1,1^2,2^1,2^2,2^3,2^4-hexahydro-2(3,1)-quinazolina-1(5,6)-pyridina-3(1,2)-benzenacyclooctaphane-1^2,2^4-dione]
8.4	–	O=C1c2ccc(C(F)(F)F)cc2N2CN1c1ccc(=O)[nH]c1CCCCCc1cc(F)ccc12 [Example 8, 3^4-Fluoro-2^7-(trifluoromethyl)-1^1,1^2,2^1,2^2,2^3,2^4-hexahydro-2(3,1)-quinazolina-1(5,6)-pyridina-3(1,2)-benzenacyclooctaphane-1^2,2^4-dione]
7.3	–	O=C1c2cnc(C(F)(F)F)cc2N2CN1c1ccc(=O)[nH]c1CCCCCc1cc(F)ccc12 [Example 9, 3^4-Fluoro-2^7-(trifluoromethyl)-1^1,1^2,2^1,2^2,2^3,2^4-hexahydro-2(3,1)-pyrido[4,3-d]pyrimidina-1(5,6)-pyridina-3(1,2)-benzenacyclooctaphane-1^2,2^4-dione]
7.3	–	O=C1c2cc(C(F)(F)F)ccc2N2CN1c1ccc(=O)[nH]c1NCCCCc1cc(F)ccc12 [Example 11, 3^4-Fluoro-2^6-(trifluoromethyl)-1^1,1^2,2^1,2^2,2^3,2^4-hexahydro-8-aza-2(3,1)-quinazolina-1(5,6)-pyridina-3(1,2)-benzenacyclooctaphane-1^2,2^4-dione]
7.6	–	O=C1c2ccc(C(F)(F)F)cc2N2CN1c1ccc(=O)[nH]c1NCCCCc1cc(F)ccc12 [Example 12, 3^4-Fluoro-2^7-(trifluoromethyl)-1^1,1^2,2^1,2^2,2^3,2^4-hexahydro-8-aza-2(3,1)-quinazolina-1(5,6)-pyridina-3(1,2)-benzenacyclooctaphane-1^2,2^4-dione]
7.3	–	CN1CCCCc2cc(F)ccc2N2CN(C(=O)c3ccc(C(F)(F)F)cc32)c2ccc(=O)[nH]c21 [Example 13, 3^4-Fluoro-8-methyl-2^7-(trifluoromethyl)-1^1,1^2,2^1,2^2,2^3,2^4-hexahydro-8-aza-2(3,1)-quinazolina-1(5,6)-pyridina-3(1,2)-benzenacyclooctaphan-1^2,2^4-dione]
6.9	–	CN1CCCCc2cc(F)ccc2N2CN(C(=O)c3ccc(C(F)(F)F)cc32)c2cc(I)c(=O)[nH]c21 [Example 14, 3^4-Fluoro-1^3-iodo-8-methyl-2^7-(trifluoromethyl)-1^1, 1^2,2^1,2^2,2^3,2^4-hexahydro-8-aza-2(3,1)-quinazolina-1(5,6)-pyridina-3(1,2)-benzenacyclooctaphan-1^2,2^4-dione]
